Assays:
[1] = Downregulation of ER in human MCF7 cells assessed as […] measured after 2 days EIA assay; assay type: functional, cell-based; conditions: MCF7, 48 h
Estrogen receptor = biological target: T1, Estrogen receptor (Homo sapiens, UniProt P03372); assay: Inhibition of ER (unknown origin) by luciferase reporter assay
T1 sequence (P03372 whole entry): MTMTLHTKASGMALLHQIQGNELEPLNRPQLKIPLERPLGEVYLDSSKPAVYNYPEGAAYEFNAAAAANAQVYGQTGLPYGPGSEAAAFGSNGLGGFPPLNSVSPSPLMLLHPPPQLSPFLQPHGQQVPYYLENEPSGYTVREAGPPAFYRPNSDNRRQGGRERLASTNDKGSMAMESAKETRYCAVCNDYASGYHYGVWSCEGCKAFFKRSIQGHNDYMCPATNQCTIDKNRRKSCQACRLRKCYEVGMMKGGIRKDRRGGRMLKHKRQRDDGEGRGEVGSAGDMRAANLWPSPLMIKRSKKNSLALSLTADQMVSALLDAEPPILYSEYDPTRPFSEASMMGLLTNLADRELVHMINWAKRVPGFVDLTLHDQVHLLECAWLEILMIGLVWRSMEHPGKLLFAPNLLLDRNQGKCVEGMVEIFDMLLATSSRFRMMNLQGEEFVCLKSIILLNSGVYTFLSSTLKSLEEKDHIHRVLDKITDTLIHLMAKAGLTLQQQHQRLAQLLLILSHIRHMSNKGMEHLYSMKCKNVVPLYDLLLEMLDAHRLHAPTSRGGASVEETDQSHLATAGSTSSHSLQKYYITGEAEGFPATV

Rattus norvegicus = assay: Anti-uterotrophic activity in rat at 10 mg/kg, sc administered once daily for 3 days relative to control; assay type: functional; conditions: time 3 day
MCF7 [2] = assay: Antiproliferative activity against human MCF7 cells; assay type: functional, cell-based
[3] = Inhibition of ESR1 Y537S mutant LBD (unknown origin) transfected in SK-BR-3 cells measured after 22 hrs by luciferase assay; assay type: cell-based; conditions: Homo sapiens, SK-BR-3, 22 h
MCF7 [4] = assay: Antiproliferative activity against human MCF7 cells assessed as reduction in cell proliferation; assay type: functional, cell-based

## C[C@]12CCC3c4ccc(O)cc4C[C@@H](CCCCCCCC[C@H](CCCC(F)(F)C(F)(F)C(F)(F)C(F)(F)F)C(=O)O)C3C1CCC2=O (some centres not stated)
[1]
  IC50: 24 nM
Estrogen receptor
  IC50: 49.8 nM

## CCCCN(C)C(=O)CCCCCCCCCC[C@@H]1Cc2cc(O)ccc2C2CC[C@@]3(C)C(CC[C@@H]3O)C21 (some centres not stated)
Rattus norvegicus
  Activity: 105%

## CN(CCCCC[C@@H]1Cc2cc(O)ccc2C2C1C1CC[C@H](O)[C@@]1(C)C[C@@H]2F)CCCSCCCC(F)(F)C(F)(F)F (some centres not stated)
MCF7 [2]
  IC50: 2.4 nM

## CCCCNC(=O)CCCCCCCCCC[C@@H]1Cc2cc(O)ccc2C2CC[C@@]3(C)C(CC[C@@H]3O)C21 (some centres not stated)
Rattus norvegicus
  Activity: 100%

## CN(CCCCCCC(F)(F)C(F)(F)C(F)(F)C(F)(F)F)CCCCC[C@@H]1Cc2cc(O)ccc2C2C1C1CC[C@H](O)[C@@]1(C)C[C@@H]2F (some centres not stated)
MCF7 [2]
  IC50: 1.9 nM

## CC1=C(c2ccc(O)cc2)[C@H](c2ccc(OCCN3CC[C@@H](C)C3)cc2)Oc2cc(O)ccc21
MCF7 [2]
  IC50: 9.2 nM
[3]
  IC50: 8 nM

## C[C@]12C[C@H](c3ccc(OCCCCCS(=O)(=O)CCCC(F)(F)C(F)(F)F)cc3)C3c4ccc(O)cc4CCC3C1CC[C@@H]2O (some centres not stated)
MCF7 [2]
  IC50: 0.13 nM

## CCNCCc1ccc(CN(CC)c2cc(OC)ccc2[C@@H]2CCc3cc(O)ccc3C2)cc1 [ELACESTRANT]
MCF7 [4]
  IC50: 4.2 nM

## C[C@]12CC[C@@H]3c4ccc(O)cc4C[C@@H](CCCCCCCCC[S+]([O-])CCCC(F)(F)C(F)(F)F)[C@H]3[C@@H]1CC[C@@H]2O (some centres not stated) [FULVESTRANT]
MCF7 [2]
  IC50: 0.35 nM
[3]
  IC50: 22 nM

From ChEMBL document CHEMBL5230133, “Selective Estrogen Receptor Degraders (SERDs): A Promising Strategy for Estrogen Receptor Positive Endocrine-Resistant Breast Cancer” (J Med Chem, 2020)
